Measurements taken from publication PMC9959553, “Promising Antifungal Molecules against Mucormycosis Agents Identified from Pandemic Response Box®: In Vitro and In Silico Analyses” (Journal of Fungi, 2023).

Experiments:
[1] = system: S. schenckii; design: method as in PMID 36294569; settings: cited from earlier work
[2] = system: Staphylococcus aureus, Balamuthia mandrillaris, C. albicans, C. glabrata and C. auris; design: method as in PMID 23375226, PMID 24568657, PMID 32560115, PMID 22347365; settings: for all of the listed species; cited from earlier work
[3] = system: R. microsporus biofilm; test: Biofilm formation assay; format: cell-based, Rhizopus microsporus; settings: at MIC
Protocol: (§1) Biofilm formation assay was performed according to Rollin-Pinheiro and colleagues. Biofilms were grown on the surface of sterile polystyrene microplates (96-well). Briefly, serial dilutions of selected compounds were prepared in RPMI 1640 medium (8–¼× MIC) and deposited in 100 µL aliquots in microplate wells. Subsequently, 100 µL containing 10^5 Rhizopus conidia in RPMI 1640 medium was added to each well and incubated for 48 h at 37 °C.
(§2) For the preformed biofilm assay, cells were cultured as described above in the absence of the compounds. […] An additional incubation of 24 h at 37 °C was performed to evaluate the anti-biofilm activity. Evaluation of both biofilm formation and preformed biofilms was performed using three parameters as previously described. Crystal violet, safranin and XTT assays were used to analyze the overall biomass, extracellular matrix and metabolic activity, respectively.

[4] = system: R. stolonifer biofilm; test: Biofilm formation assay; format: cell-based, Rhizopus stolonifer
Protocol: as §1, §2

[5] = system: R. oryzae, R. microsporus and R. stolonifer biofilm formation; test: Biofilm formation assay, stated over the three species; format: cell-based, Rhizopus species
Protocol: as §1, §2

With Oc1c(C(Nc2nc3ccccc3s2)c2ccc(OC(F)F)cc2)ccc2cccnc12 (centres unmarked) [MMV019724] as the compound, how does the “concentration that inhibits 50%” value [1] read?
The value was 1 µM.

With CCc1nc(N)nc(N)c1C#CC(C)c1cc(OC)cc(-c2ccncc2)c1 (centres unmarked) [MMV1580844] as the compound, how does the MIC [2] read?
The MIC was “lower than 100 nM”.

What does the source list for CCCCC(CC)CNC(=N)NC(=N)NCCCCCCNC(=N)NC(=N)NCC(CC)CCCC (centres unmarked) [MMV396785, Alexidine, reference compound]?
biofilm biomass, extracellular matrix and viability decreased to [3]: 25%; concentration giving reduction in biofilm parameters [4]: ≥ 2 × MIC; inhibition of biofilm formation (total biomass, matrix and viability) [5]: ~100%
